#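 All cell lines were grown in 96-well plates and treated with compound for 48 hours. GI50: concentration for 50% inhibition of growth. At the TGI there is no net growth.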
# Tests used:
# Assay in all cases: NCI-60 cell line screen, 48 h
# SNB-19 CNS = test system: SNB-19 CNS
# TK-10 renal = test system: TK-10 renal
# IGROV1 ovarian = test system: IGROV1 ovarian
# SK-OV-3 ovarian = test system: SK-OV-3 ovarian
# SF-268 CNS = test system: SF-268 CNS
# SK-MEL-28 melanoma = test system: SK-MEL-28 melanoma
# HT29 colon = test system: HT29 colon
# UACC-257 melanoma = test system: UACC-257 melanoma
# HCT-116 colon = test system: HCT-116 colon
# OVCAR-4 ovarian = test system: OVCAR-4 ovarian
SMILES,GI50 (SNB-19 CNS),TGI (SNB-19 CNS),GI50 (TK-10 renal),TGI (TK-10 renal),GI50 (IGROV1 ovarian),TGI (IGROV1 ovarian),GI50 (SK-OV-3 ovarian),TGI (SK-OV-3 ovarian),TGI (SF-268 CNS),TGI (SK-MEL-28 melanoma),TGI (HT29 colon),TGI (UACC-257 melanoma),TGI (HCT-116 colon),TGI (OVCAR-4 ovarian),GI50 (SF-268 CNS),GI50 (SK-MEL-28 melanoma),GI50 (HT29 colon),GI50 (HCT-116 colon),GI50 (UACC-257 melanoma),GI50 (OVCAR-4 ovarian)
O=C1/C(=C/c2ccc([N+](=O)[O-])s2)Oc2cc(Cl)ccc21,1.72 µM,4.52 µM,8.27 µM,> 21.1 µM,0.941 µM,3.61 µM,23.5 µM,> 100 µM,,,,,,,,,,,,
COc1cc2c(cc1OC)C(C#N)N(C(=O)c1ccccc1)C=C2OC(=O)c1ccccc1 (stereo unspecified),,67.5 µM,,50.5 µM,,50.2 µM,,> 100 µM,86 µM,58.1 µM,> 100 µM,53 µM,,,,,,,,
COc1ccc2c(c1)[n+]([O-])c(-c1cccc(Cl)c1)c(N)[n+]2[O-],,> 100 µM,,,,> 100 µM,,> 100 µM,> 100 µM,83 µM,> 100 µM,64.7 µM,> 100 µM,> 100 µM,,,,,,
O=C(NC(=Nc1ccccc1)SCSC(=Nc1ccccc1)NC(=O)c1ccco1)c1ccco1,,79.1 µM,,70.4 µM,,> 100 µM,,,> 100 µM,> 100 µM,> 100 µM,> 100 µM,> 100 µM,> 100 µM,,,,,,
COC(=O)Oc1nn(C(=O)OC)c(=O)c2ccccc12,,> 100 µM,,> 100 µM,,> 100 µM,,> 100 µM,> 100 µM,> 100 µM,,> 100 µM,> 100 µM,,,,,,,
Cc1ccc([P+](Cc2ccccc2)(c2ccccc2)c2ccccc2)cc1,2.81 µM,> 100 µM,,,1.92 µM,19 µM,4.1 µM,> 100 µM,> 100 µM,25.8 µM,10.5 µM,4.8 µM,> 100 µM,> 100 µM,3.66 µM,3.13 µM,1.6 µM,1.81 µM,0.98 µM,2.62 µM
COc1ccc(Nc2nc3cc(C(F)(F)F)ccc3nc2-c2ccccc2)cc1OC,,,,43 µM,,> 100 µM,,66.5 µM,> 100 µM,63.8 µM,> 100 µM,99.4 µM,> 100 µM,> 100 µM,,,,,,
COc1ccc(-c2coc3cc(O)ccc3c2=O)cc1,,> 100 µM,,> 100 µM,,> 100 µM,,> 100 µM,> 100 µM,> 100 µM,> 100 µM,> 100 µM,> 100 µM,,,,,,,
COC(=O)C1CSC(c2csc(CCN)n2)=N1 (stereo unspecified),,> 100 µM,,> 100 µM,,> 100 µM,,> 100 µM,,> 100 µM,> 100 µM,> 100 µM,> 100 µM,> 100 µM,,,,,,
COC(=O)C12CCC(C)(C)CC1C1=CCC3C4(C)CC(O)C(O)C(C)(C(=O)OC)C4CCC3(C)C1(CO)CC2 (stereo unspecified),,37 µM,,33.7 µM,,35.2 µM,,31.3 µM,44.9 µM,,30.1 µM,31.7 µM,27.4 µM,27.8 µM,,,,,,
COc1cc(OC)cc(Oc2cnc3cc(N)cc(N)c3n2)c1,17.5 µM,45.6 µM,16.6 µM,38.5 µM,,,23.7 µM,74.5 µM,31.9 µM,28.4 µM,30.6 µM,33.7 µM,20.2 µM,21.8 µM,15.5 µM,14.2 µM,13.3 µM,6.47 µM,18 µM,9.07 µM
N/C=N/S(=O)(=O)c1ccc(NC(=O)COC(=O)c2cccc3c(=O)c4ccccc4[nH]c23)cc1,,> 100 µM,,> 100 µM,,> 100 µM,,> 100 µM,,> 100 µM,> 100 µM,> 100 µM,> 100 µM,,,,,,,
C/C(=N\NC(=S)N1CCN(c2ccccn2)CC1)c1ccccn1,0.183 µM,15 µM,,13.9 µM,,15 µM,0.198 µM,16.2 µM,14.2 µM,19.3 µM,16 µM,,13.8 µM,12.6 µM,,,< 0.0192 µM,,,1.08 µM
COC1=CC(c2ccc[nH]2)=N/C1=C\c1[nH]c(C)c(C(=O)CCC(=O)Oc2ccc3c(c2)CCC2C3CC[C@]3(C)[C@@H](O)CC[C@@H]23)c1C (stereo partly specified),4.13 µM,72.6 µM,7.68 µM,> 100 µM,4.47 µM,> 100 µM,5.56 µM,> 100 µM,> 100 µM,> 100 µM,,> 100 µM,3.57 µM,> 100 µM,2.91 µM,5.64 µM,,1.03 µM,> 100 µM,5.02 µM
c1ccc2c(c1)SC(=C1Sc3ccccc3S1)S2,,> 100 µM,,> 100 µM,,> 100 µM,,> 100 µM,> 100 µM,> 100 µM,> 100 µM,,,> 100 µM,,,,,,
CC(=O)OCC12CN(C#N)C3C4COC(CC41)C1(C(=O)N(C)c4ccccc41)C32 (stereo unspecified),,,,66.5 µM,,85 µM,,> 100 µM,> 100 µM,62.9 µM,> 100 µM,51.8 µM,40.7 µM,49.6 µM,,,,,,
CC(c1cc(Cl)ccc1O)c1cc(Cl)ccc1O,8.13 µM,22.4 µM,11.8 µM,24.7 µM,,,13.4 µM,26.4 µM,16.9 µM,17 µM,9.13 µM,,10.3 µM,22.8 µM,4.33 µM,4.13 µM,2.74 µM,3.38 µM,,5.24 µM
CCCCCCCCCCCCCC[n+]1ccccc1,,,0.491 µM,1.81 µM,,,1.45 µM,4.26 µM,,3.03 µM,1.46 µM,3.07 µM,,2.91 µM,,1.31 µM,0.269 µM,,0.93 µM,0.32 µM
[O-]/N=[N+](/[O-])C1CCCCC1=[N+]1CCOCC1 (stereo unspecified),,> 100 µM,,> 100 µM,,,,> 100 µM,> 100 µM,> 100 µM,> 100 µM,> 100 µM,> 100 µM,> 100 µM,,,,,,
OCC1OC2c3ccccc3COC2C1OCc1ccccc1 (stereo unspecified),,> 100 µM,,> 100 µM,,> 100 µM,,> 100 µM,,> 100 µM,> 100 µM,> 100 µM,> 100 µM,> 100 µM,,,,,,
